From patent US20100305098A1, “METHODS OF USE” (priority 2007, published 2010)

Tests used:
CAIA mouse = test: Suppression of arthritis development in CAIA; type: in vivo; details: once daily PO day 0 to day 7
Procedure: Suppression of arthritis development in CAIA. BALB/c mice were injected i.v. with 1 mg of anti-type II collagen antibody at day 0, and 3 days later 25 μg of LPS was injected i.p. with active compound and methotrexate (MTX) was given once daily PO from day 0 to day 7. Arthritis score and body weight was monitored over the course of study.

[1] = test system: activated mouse CD4+ T cells; test: IL-17 production in activated mouse CD4+ T cells; type: cell-based; details: anti-CD3/anti-CD28 stimulated CD4+ T cells
Procedure: To study the effect of EP4 agonist/antagonist on IL-17 production, total CD4^+ T cells from C57BL/6 mice were activated with plate-bound anti-CD3 (2 μg/ml) plus soluble anti-CD 28 (2 μg/ml) in the presence or absence of IL-23 (10 ng/ml) or EP4 agonist/antagonists at indicated concentrations for 3-5 days. Culture supernatants were analyzed by IL-17 ELISA, and cell pellets were used to measure cell proliferation with CellTite-Glo reagents.
To investigate whether EP4 also plays a role in a Th17 response, the effect of EP4 activation by PGE2 or EP4 agonist on IL-17 production in activated mouse CD4^+ T cells was examined. Total CD4^+ T cells were stimulated with anti-CD3/anti-CD28 with and without IL-23 and in the presence or absence of PGE2 or EP4 agonist PGE1-OH (0.1 nM to 1000 nM) for 3-5 days. IL-17 in culture supernatants was measured by ELISA and cell proliferation was measured by CellTiter-glo.

activated human MoDCs = test: Human MoDC IL-23 secretion assay; type: cell-based; details: PGE1-OH (10 nM); LPS/R-848 activated human MoDCs, 24 h; read-out: IC50 (Ave. of two experiments), inhibiting PGE1-OH enhanced IL-23 production
Procedure: In vitro human monocytes derived DC assay. CD14^+ cells were purified from human PBMCs using Miltenyi CD14 microbeads, and differentiated with human GM-CSF (500 U/ml)+human IL-4 (500 U/ml) in complete RPMI medium containing 10% charcoal-stripped FBS for […]. The unattached imDCs were stimulated with LPS (10 ng/ml)+R-848 (2.5 μg/ml) with or without addition of EP4 agonist/antagonist or anti-PGE2 Ab at the concentrations indicated for 24 h. IL-23 in culture supernatants were measured by ELISA (eBioscience).
Human CD14^+ monocytes were differentiated into imDCs with GM-CSF plus IL-4 for 7 days and re-stimulated with LPS/R-848 in the presence or absence of exogenous PGE1-OH (1-100 nM) and with and without ER-819762 (FIG. 13) or ER-819924 or anti-PGE2 Ab (FIG. 14) for 24 h. IL-23 secretion in culture supernatants was measured by ELISA. […] IC50 values of representative compounds in human MoDC IL-23 secretion assay.

human T-bet = human T-bet (Homo sapiens, UniProt Q9UL17); test: HEKT-bet-luc assay (normalized); type: cell-based; details: reference compound used for normalization; read-out: established potency of the reference compound (IC50)
human T-bet, sequence (Q9UL17 whole entry): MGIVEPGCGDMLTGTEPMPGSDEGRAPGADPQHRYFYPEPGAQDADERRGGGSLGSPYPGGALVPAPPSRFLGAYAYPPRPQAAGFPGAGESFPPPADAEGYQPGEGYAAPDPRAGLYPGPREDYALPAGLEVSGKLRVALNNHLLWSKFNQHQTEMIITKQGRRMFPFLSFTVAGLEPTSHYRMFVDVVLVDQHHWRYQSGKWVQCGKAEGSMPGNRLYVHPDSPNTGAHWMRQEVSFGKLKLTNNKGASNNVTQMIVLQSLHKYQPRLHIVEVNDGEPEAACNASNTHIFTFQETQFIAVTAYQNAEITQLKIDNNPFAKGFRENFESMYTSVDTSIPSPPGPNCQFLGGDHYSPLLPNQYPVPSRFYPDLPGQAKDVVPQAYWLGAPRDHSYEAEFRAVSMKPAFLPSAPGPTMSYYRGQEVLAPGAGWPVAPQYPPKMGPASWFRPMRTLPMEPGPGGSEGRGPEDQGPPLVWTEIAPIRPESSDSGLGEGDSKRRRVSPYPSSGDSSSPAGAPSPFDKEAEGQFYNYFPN
Procedure: HEKT-bet-luc assay: This assay measures a T-bet dependent reporter (luciferase) activity in engineered HEK cells that express a human T-bet and a T-box responsive element driving luciferase reporter. HEKT-bet cells were plated at 2×10^4/well in 96-well plate and compound was added into cell culture for 24 hours. Luciferase activity was measured by adding 50 μl of Steady-Glo reagent (Promega) and samples were read in Victor V reader (PerkinElmer). The activity of compound was determined by comparing compound treated samples to non-compound treated vehicle controls. The IC50 values were calculated utilizing a maximum value corresponding to the amount of luciferase in the absence of a test compound and a minimum value corresponding to a test compound value obtained at maximum inhibition.
Determination of Normalized HEKT-bet IC50 values: Compounds were assayed in microtiter plates. […] The un-normalized IC50 value for a particular compound was divided by the IC50 value determined for the reference compound in the same microtiter plate to provide a relative potency value. […]
Exemplary compounds of the present invention were assayed according to the methods set forth above in the HEKT-bet-luc assay described above. Table 2 below set forth exemplary compounds of the present invention having an IC50 of up to the indicated amount (μM) as determined by the normalized HEKT-bet-luc assay described above.

EP4 = target: T1, EP4 (Homo sapiens, UniProt P35408); test: PGE2 induced CRE-PLAP reporter assay in SE302 cells; type: cell-based; details: tested at 0.3 nM to 10 μM
T1 construct: SE302 cells that express endogenous EP4; endogenous in cells; host or cells: SE302 cells
T1 sequence (P35408 whole entry): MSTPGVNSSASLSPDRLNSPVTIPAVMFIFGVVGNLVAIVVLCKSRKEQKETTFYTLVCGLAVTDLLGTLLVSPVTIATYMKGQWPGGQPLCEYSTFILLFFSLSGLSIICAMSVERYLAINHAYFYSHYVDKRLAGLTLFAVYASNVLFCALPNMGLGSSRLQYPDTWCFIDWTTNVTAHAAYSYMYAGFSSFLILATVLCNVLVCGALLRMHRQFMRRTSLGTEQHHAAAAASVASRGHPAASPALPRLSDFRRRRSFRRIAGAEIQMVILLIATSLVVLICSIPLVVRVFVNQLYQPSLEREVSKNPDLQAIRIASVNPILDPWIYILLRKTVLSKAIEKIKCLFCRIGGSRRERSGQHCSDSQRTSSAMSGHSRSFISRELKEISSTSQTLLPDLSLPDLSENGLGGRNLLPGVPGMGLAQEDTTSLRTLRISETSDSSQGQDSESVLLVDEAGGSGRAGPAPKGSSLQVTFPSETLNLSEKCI
Procedure: CRE-PLAP reporter assay. SE302 cells that express endogenous EP4 were stimulated with PGE2 in the presence or absence of ER-819762 for overnight, and PLAP activity was measured.

Naive CD4 T cells = test: Mouse Th1 differentiation assay; type: cell-based; details: for effect on Th1 differentiation: added during Th1 differentiation, 3 days
Procedure: In vitro T cell assays. Naive CD4^+ T cells were purified from spleens of either BALB/c or D011.10 mice by Robosep as described by the manufacture. For BALB/c mice, 1×10^5 of CD4^+ T cells were cultured for 3-6 days in a 96-well plate in 100 μl of complete RPMI medium (Cellgro) containing either 10% of regular fetal bovine serum (Hyclone) or charcoal stripped FBS (Hyclone) (when exogenous PGE2 or EP4 agonists were added to the culture) under either neutral condition (1 μg/ml of plate-bound anti-CD3+1 μg/ml of soluble anti-CD28+10 ng/ml of mouse IL-2) or under Th1 promoting condition (neutral+5 ng/ml of mouse IL-12+10 μg/ml of anti-IL-4) or under Th2 differentiation condition (neutral+10 ng/ml of mouse IL-4+10 μg/ml of […]). IFNγ or IL-4 in culture supernatants were detected by ELISA. Cell pellets were used to measure cell proliferation with either Alamar blue or CellTiter-Glo reagents according to the instructions of the manufacture. For D011.10 mice, mitomycin C treated splenocytes from BALB/c mice were used as antigen presenting cells and co-cultured with naive CD4^+ T cells in 5 to 1 ratio (5×10^5 of mitomycin C treated splenocytes in 100 μl medium+1×10^5 CD^4 T cells in 100 μl medium) and stimulated with OVA peptide (0.3 ng/ml) under either neutral, Th1 or Th2 promoting conditions as described above. EP4 agonists, antagonists or anti-PGE2 Ab were added during Th cell differentiation.
To investigate whether EP4 activation plays a role in Th1 differentiation, the effect of PGE2 or EP4 agonist and anti-PGE2 antibody was examined in a mouse Th1 differentiation assay. Naive CD4 T cells were differentiated with Th1 promoting agents for 3 days. Th1 cytokine IFNγ in culture supernatants was measured by ELISA. Cell proliferation was measured by Alamar blue assay. PGE2 or EP4 agonist PGE1-OH was added during Th1 differentiation.

## CN(Cc1cnc2nc(N)nc(N)c2n1)c1ccc(C(=O)N[C@@H](CCC(=O)O)C(=O)O)cc1 [methotrexate]
CAIA mouse
  activity in CAIA model: not particularly active

## CCN1C(=O)N2Cc3cc(OC)cc(OC)c3[C@@H](C)C=C2C12CCN(Cc1cc(C)cc(C)c1)CC2 [ER-819762-01]
[1]
  effect on PGE2/PGE1-OH enhanced IL-17 production: suppressed the activity

## CCN1C(=O)N2Cc3cc(OC)cc(OC)c3[C@@H](C)C=C2C12CCN(Cc1nc(C)oc1C)CC2 [ER-811283-01]
Activated human MoDCs
  IC50: 57 nM

## COCCN1C(=O)N2Cc3cc(OC)cc(OC)c3C(C)(C)C=C2C12CCN(Cc1cc(OC)cc(OC)c1)CC2 [ER-819544]
Human T-bet
  IC50: 35 nM

## CCN1C(=O)N2Cc3cc(OC)cc(OC)c3[C@@H](C)C=C2C12CCN(Cc1cc(C)cc(C)c1)CC2 [ER-819762]
Activated human MoDCs
  IC50: 40 to 200 nM
EP4
  inhibition of PGE2 induced CRE-PLAP reporter activity: potent inhibitory activities
[1]
  effect on PGE2/PGE1-OH enhanced IL-17 production: suppresses
Naive CD4 T cells; combination with anti-PGE2 Ab
  added activity to anti-PGE2 Ab in Th1 differentiation: no added activity

## CCN1C(=O)N2Cc3cc(OC)cc(OC)c3[C@@H](C)C=C2C12CCN(Cc1cccn1C)CC2 [ER-819924]
Activated human MoDCs
  IC50: < 200 nM
EP4
  inhibition of PGE2 induced CRE-PLAP reporter activity: potent inhibitory activities

## CCCCC[C@H](O)/C=C/[C@H]1[C@H](O)CC(=O)[C@@H]1CCCCCCCO [PGE1-OH, PGE1-alcohol]
Naive CD4 T cells
  effect on Th1 differentiation: enhanced Th1 differentiation

## CCN1C(=O)N2Cc3cc(OC)cc(OC)c3[C@@H](C)C=C2C12CCN(Cc1c[nH]nc1C)CC2 [ER-819826-01]
Activated human MoDCs
  IC50: 185 nM

## CCCCC[C@H](O)/C=C/[C@H]1[C@H](O)CC(=O)[C@@H]1C/C=C\CCCC(=O)O [PGE2, prostaglandin E2]
Naive CD4 T cells
  effect on Th1 differentiation: enhanced Th1 differentiation
